Measurements taken from patent US11027022B2, “Conjugates and conjugating reagents” (priority 2016, dated 2021).

System: Karpas-299 cells (T-anaplastic large cell lymphoma, ALCL)
Test: Karpas-299 mouse xenograft study
Type: in vivo, CB17-SCID mice
Settings: single i.v. injection, 1 mg/kg, groups of eight mice
Experimental: Healthy female CB17-SCID mice (CBySmn.CB17-Prkdcscida, Charles River Laboratories) with an average body weight of 17.5 g were used for cell inoculation (Day 0). 24 to 72 h prior to tumour cell injection, the mice were […] (1.44 Gy, ^60Co). The animals were maintained in SPF health status according to the FELASA guidelines in housing rooms under controlled environmental conditions.
Tumours were induced by subcutaneous injection of 10^7 Karpas-299 cells (T-anaplastic large cell lymphoma, ALCL) in 200 μL of RPMI 1640 into the right flank. Tumours were measured twice a week with callipers, and the volume was estimated using the formula: […]
Fourteen days after tumour implantation (Day 14), the animals were randomised into groups of eight mice using Vivo Manager® software (233 mm^3 mean tumour volume) and treatment was initiated. The animals from the vehicle group received a single intravenous (i.v.) injection of PBS. The treated groups were dosed with a single i.v. injection of ADC at either 0.5 mg/kg or 1 mg/kg.
Treatment tolerability was assessed by bi-weekly body weight measurement and daily observation for clinical signs of treatment-related side effects. Mice were euthanized when a humane endpoint was reached (e.g. 1,600 mm^3 tumour volume) or after a maximum of 6 weeks post-dosing.

## Adcetris®: commercially-available Adcetris® conjugate, comparative to the brentuximab-drug conjugates [reference compound]
  complete responses (total reduction of tumour volume to zero): 2 animals
  mean tumour volume (result in words): increase in mean tumour volume
